Here are results for 35 molecules from patent publication US20220009906A1, “ISOINDOLIN-1-ONE DERIVATIVES USEFUL AS GRK2 INHIBITORS” (priority 2020, published 2022).

Where “and” joins values, the source holds several entries; their conditions need not be identical. Equal values may be shown once.

Assay [1] addresses T1, GRK2 (Homo sapiens, UniProt P25098).
T1 sequence (P25098 1-689): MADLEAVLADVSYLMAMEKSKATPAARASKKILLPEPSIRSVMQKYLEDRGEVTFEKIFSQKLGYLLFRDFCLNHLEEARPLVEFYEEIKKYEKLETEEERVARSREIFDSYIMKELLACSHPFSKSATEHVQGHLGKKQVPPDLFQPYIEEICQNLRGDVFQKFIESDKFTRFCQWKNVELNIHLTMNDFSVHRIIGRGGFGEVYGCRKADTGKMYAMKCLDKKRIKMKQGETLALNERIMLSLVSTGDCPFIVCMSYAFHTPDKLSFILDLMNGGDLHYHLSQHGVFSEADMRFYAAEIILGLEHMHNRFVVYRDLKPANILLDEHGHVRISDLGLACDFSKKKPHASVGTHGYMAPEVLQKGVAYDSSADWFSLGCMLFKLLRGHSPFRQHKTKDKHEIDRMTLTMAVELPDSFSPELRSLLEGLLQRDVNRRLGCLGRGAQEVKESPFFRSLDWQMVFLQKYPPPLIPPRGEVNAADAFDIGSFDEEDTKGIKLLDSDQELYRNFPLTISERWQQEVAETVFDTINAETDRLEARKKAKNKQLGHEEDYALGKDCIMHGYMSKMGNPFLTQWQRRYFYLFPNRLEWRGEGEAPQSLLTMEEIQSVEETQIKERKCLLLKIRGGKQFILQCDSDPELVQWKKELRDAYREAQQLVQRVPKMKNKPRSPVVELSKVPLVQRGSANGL
In words: GRK2 Transcreener Assay. The assay is classed as biochemical. The note with it: Biological Example 2 GRK2 Transcreener IC50 (μM), 10 nM GRK2; 10 μM ATP; 150 μM peptide substrate; multiple measurements listed individually. On the procedure:
Positive and negative control wells received an equal volume of DMSO. The final DMSO concentration in the assay is 1%.
The plate was placed in centrifuge equipped with a spin-bucket rotor and spun for 1 min at 1000 rpm.
GRK2 enzymatic reactions were initiated with the addition of 2 μL/well of 50 nM GRK2 in assay buffer. Plates were centrifuged for 1 min at 1000 rpm. For negative control wells, the order of reagent addition was reversed: 10 μL/well ADP detection mix (see below) was added first, followed by the addition of 2 μL/well of the GRK2 solution. Reaction mixtures were incubated at ambient temperature for 2 hours. Final concentrations of reagents in the assays were as follows:
Following incubation, the reactions were quenched with 10 μL/well of the Transcreener ADP detection mix. […] The plates were then centrifuged for 1 min at 1000 rpm.
Fluorescence polarization values of the reaction mixtures were read on a Safire plate reader after a 60 min incubation at ambient temperature. Excitation wavelength=590 nm; emission wavelength=650 nm.
The fluorescence polarization data were converted to % activity as follows:
% activity=(sample−NC)/(PC−NC)*100
where NC is the mean of negative control (ADP detection mix added prior to GRK2 addition), and PC is the mean of positive control (GRK2 reaction without inhibitor). IC50 values are determined from a 4-parameter fit, using the following equation:
Y=Bottom+(Top−Bottom)/(1+10^((Log IC50−X)*Hill slope))
where X=log10 of the compound concentration.

Assay [2] has as its target T1, GRK2. Briefly: hGRK2 LANCE Ultra In Vitro Assay. Particulars: Biological Example 1 GRK2 Lancer IC50 (μM), 10 nM GRK2; 30 or 600 μM ATP (not stated which); multiple measurements listed individually. The assay is classed as biochemical. An outline of the steps:
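TR-FRET kinase assay with 10 nM GRK2 preincubated 30 min with compound, then 200 nM ULight-peptide and 30 or 600 μM ATP in HEPES pH 7.5, 10 mM MgCl2, 1% DMSO; 120 or 60 min at ambient temperature respectively.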

With `COc1cccc(CN2C(=O)c3cc(-c4cn[nH]c4)ccc3C2(C)C)c1` [Compound 7, 2-(3-methoxybenzyl)-3,3-dimethyl-6-(1H-pyrazol-4-yl)isoindolin-1-one], half-maximal inhibition on GRK2 [1] (IC50) required 0.005 µM.

On GRK2 [1], `C[C@H](c1cccc2ccccc12)N1Cc2ccc(-c3cn[nH]c3)cc2C1=O` [Compound 24] registered an IC50 of 1.46 µM.

Molecule `CC(C)(C)OC(=O)c1cccc(CN2Cc3ccc(-c4cn[nH]c4)cc3C2=O)c1` [Compound 164] came in with a concentration for half-maximal inhibition (IC50) at GRK2 [1] of 0.305 µM.

Take `COc1cccc(CN2Cc3ccc(-c4c[nH]nn4)cc3C2=O)c1` [Compound 20, 2-(3-methoxybenzyl)-6-(1H-1,2,3-triazol-4-yl)isoindolin-1-one]: at GRK2 [1], half-maximal inhibition (IC50) was put at 0.02 µM.

On GRK2 [1], `COc1cccc(CN2Cc3ccc(-c4ccnc(N)n4)cc3C2=O)c1` [Compound 4] registered an IC50 of 0.08 µM.

Take `COc1cccc(CN2Cc3ccc(-c4cn[nH]c4)cc3C2=O)c1` [Compound 1, 2-(3-methoxybenzyl)-6-(1H-pyrazol-4-yl)isoindolin-1-one]: at GRK2 [1], the IC50 is < 0.005 µM and 0.005 µM.

At GRK2 [1], `O=C(O)c1cccc(CN2Cc3ccc(-c4cn[nH]c4)cc3C2=O)c1` [Compound 18] displayed a half-maximal inhibitory concentration (IC50) of 0.139 µM.

`COc1cccc(CN2C(=O)c3cc(-c4ccnc(N)n4)ccc3C2(C)C)c1` [Compound 17, 6-(2-aminopyrimidin-4-yl)-2-(3-methoxybenzyl)-3,3-dimethylisoindolin-1-one] came in with an IC50 against GRK2 [1] of 0.048 µM.

Take `COc1cccc(CN2C(=O)c3cc(-c4cn[nH]c4)ccc3C23CCNCC3)c1` [Compound 14, 2-(3-methoxybenzyl)-5-(1H-pyrazol-4-yl)spiro[isoindoline-1,4′-piperidin]-3-one]: the half-inhibitory concentration (IC50) against GRK2 [1] was under 0.005 µM.

Regarding `NCc1cccc(CN2Cc3ccc(-c4cn[nH]c4)cc3C2=O)c1` [Compound 22, 2-(3-(Aminomethyl)benzyl)-6-(1H-pyrazol-4-yl)isoindolin-1-one], on GRK2 [1], 1.2 µM corresponded to half-maximal inhibition (IC50).

Consider `CS(=O)(=O)Nc1cccc(CN2Cc3ccc(-c4ccnc5[nH]ccc45)cc3C2=O)c1` [Compound 10], for which the half-inhibitory concentration (IC50) against GRK2 [1] stood at 0.719 µM.

Molecule `CCOc1cccc(CN2Cc3ccc(-c4cn[nH]c4)cc3C2=O)c1` [Compound 2, 2-(3-ethoxybenzyl)-6-(1H-pyrazol-4-yl)isoindolin-1-one] displayed a half-maximal inhibitory concentration (IC50) at GRK2 [1] of 0.009 µM.

On GRK2 [2], `CCOc1cccc([C@@H](C)N2Cc3ccc(-c4cn[nH]c4)c(F)c3C2=O)c1` [Compound 48] returned a concentration for half-maximal inhibition (IC50) of 0.01 µM.

`COc1cccc(CN2C(=O)c3cc(-c4cn[nH]c4)ccc3C23CCOCC3)c1` [Compound 82, 2-(3-methoxybenzyl)-5-(1H-pyrazol-4-yl)-2′,3′,5′,6′-tetrahydrospiro[isoindoline-1,4′-pyran]-3-one]: inhibition at GRK2 [2] was half-maximal at 0.007 µM (IC50).

On GRK2 [2], `CC(=O)OCC(=O)Oc1cccc(CN2Cc3ccc(-c4cn[nH]c4)cc3C2=O)c1` [Compound 138] registered an IC50 of 0.002 µM.

For the molecule `COc1cccc(C(CO)N2C(=O)c3cc(-c4cn[nH]c4)ccc3C23CC=CC3)c1` (centres unmarked) [Compound 78, 2′-(2-hydroxy-1-(3-methoxyphenyl)ethyl)-5′-(1H-pyrazol-4-yl)spiro[cyclopentane-1,1′-isoindolin]-3-en-3′-one], the IC50 against GRK2 [2] was found to be 0.06 µM.

Regarding `COc1cccc(C(CO)N2Cc3ccc(-c4ccnc(N)n4)cc3C2=O)c1` (centres unmarked) [Compound 64, 6-(2-aminopyrimidin-4-yl)-2-(2-hydroxy-1-(3-methoxyphenyl)ethyl)isoindolin-1-one], the IC50 on GRK2 [2] came to 0.047 µM.

In turn, `COc1cccc([C@@H](C)N2Cc3c(cc(-c4cn[nH]c4)cc3-c3cccnc3N)C2=O)c1` [Compound 125, (R)-4-(2-aminopyridin-3-yl)-2-(1-(3-methoxyphenyl)ethyl)-6-(1H-pyrazol-4-yl)isoindolin-1-one] returned a 50% inhibitory concentration (IC50) on GRK2 [2] of 0.022 µM.

In the case of `COc1cccc([C@@H](C)N2C(=O)c3cc(-c4cn[nH]c4)ccc3[C@@H]2CC(=O)O)c1` (single isomer, unassigned) [Compound 97], the 50% inhibitory concentration (IC50) on GRK2 [2] is 0.012 µM.

On to `COc1cccc([C@@H](C)N2Cc3c(cc(-c4cn[nH]c4)cc3N3CCNCC3)C2=O)c1` [Compound 155, (R)-2-(1-(3-methoxyphenyl)ethyl)-4-(piperazin-1-yl)-6-(1H-pyrazol-4-yl)isoindolin-1-one], for which, at GRK2 [2], the 50% inhibitory concentration (IC50) came to 0.007 µM.

The molecule `COc1cccc(CN2C(=O)c3cc(-c4cn[nH]c4)ccc3C2Cc2nn[nH]n2)c1` (centres unmarked) [Compound 93, 3-((2H-tetrazol-5-yl)methyl)-2-(3-methoxybenzyl)-6-(1H-pyrazol-4-yl)isoindolin-1-one] yielded an IC50 on GRK2 [2] of 0.02 µM.

Molecule `COc1cccc(C(CO)N2Cc3c(cc(-c4cn[nH]c4)cc3-c3cncc(F)c3)C2=O)c1` (centres unmarked) [Compound 152, 4-(5-fluoropyridin-3-yl)-2-(2-hydroxy-1-(3-methoxyphenyl)ethyl)-6-(1H-pyrazol-4-yl)isoindolin-1-one] gave an IC50 on GRK2 [2] of 0.017 µM.

In turn, `COc1cccc(CN2C(=O)c3cc(-c4cn[nH]c4)ccc3C23CCCC3C(N)=O)c1` (centres unmarked) [Compound 111, 2′-(3-methoxybenzyl)-3′-oxo-5′-(1H-pyrazol-4-yl)spiro[cyclopentane-1,1′-isoindoline]-2-carboxamide] gave an IC50 against GRK2 [2] of 0.007 µM.

In the case of `COc1cncc(-c2cc(-c3cn[nH]c3)cc3c2CN([C@H](C)c2cccc(OC)c2)C3=O)c1` [Compound 126, (R)-2-(1-(3-methoxyphenyl)ethyl)-4-(5-methoxypyridin-3-yl)-6-(1H-pyrazol-4-yl)isoindolin-1-one], the IC50 on GRK2 [2] worked out at 0.024 µM.

As for `COc1cccc([C@@H](C)N2Cc3c(cc(-c4cn[nH]c4)cc3-c3ccc(OC)nc3)C2=O)c1` [Compound 127, (R)-2-(1-(3-methoxyphenyl)ethyl)-4-(6-methoxypyridin-3-yl)-6-(1H-pyrazol-4-yl)isoindolin-1-one], the 50% inhibitory concentration (IC50) at GRK2 [2] is 0.047 µM.

`COc1cccc(C(CO)N2Cc3c(cc(-c4cn[nH]c4)cc3-c3ccc(O)cc3)C2=O)c1` (centres unmarked) [Compound 153, 2-(2-Hydroxy-1-(3-methoxyphenyl)ethyl)-4-(4-hydroxyphenyl)-6-(1H-pyrazol-4-yl)isoindolin-1-one]: the concentration for half-maximal inhibition (IC50) at GRK2 [2] amounted to 0.019 µM.

On GRK2 [2], `COc1cccc([C@@H](C)N2Cc3c(cc(-c4cn[nH]c4)cc3-c3ccnc(C(C)(C)C)c3)C2=O)c1` [Compound 154, (R)-4-(2-(tert-butyl)pyridin-4-yl)-2-(1-(3-methoxyphenyl)ethyl)-6-(1H-pyrazol-4-yl)isoindolin-1-one] returned a half-maximal inhibitory concentration (IC50) of 0.932 µM.

`COc1cccc(C(CN(C)C)N2Cc3ccc(-c4cn[nH]c4)cc3C2=O)c1` (centres unmarked) [Compound 80, 2-(2-(dimethylamino)-1-(3-methoxyphenyl)ethyl)-6-(1H-pyrazol-4-yl)isoindolin-1-one] returned a concentration for half-maximal inhibition (IC50) at GRK2 [2] of 0.044 µM.

`COc1cccc(CN2C(=O)c3cc(-c4ccnc(N)n4)ccc3C2CC#N)c1` (centres unmarked) [Compound 33] had an IC50 on GRK2 [2] of 0.098 µM.

The molecule `COc1cccc(C(c2nn[nH]n2)N2Cc3ccc(-c4cn[nH]c4)cc3C2=O)c1` (centres unmarked) [Compound 94, 2-((3-methoxyphenyl)(2H-tetrazol-5-yl)methyl)-6-(1H-pyrazol-4-yl)isoindolin-1-one] came in with a 50% inhibitory concentration (IC50) at GRK2 [2] of 0.652 µM.

As for `COc1cccc([C@@H](C)N2C(=O)c3cc(-c4cn[nH]c4)ccc3C23CCC(O)C3)c1` (mixture of isomers) [Compound 173], the IC50 at GRK2 [2] came to 0.092 µM.

For the molecule `COc1ccnc(CN2Cc3ccc(-c4cn[nH]c4)cc3C2=O)c1` [Compound 105], half-maximal inhibition against GRK2 [2] (IC50) was put at 0.071 µM.

Consider `CCOc1cccc([C@H](C(=O)OC)N2Cc3ccc(-c4cn[nH]c4)cc3C2=O)c1` [Compound 73], for which the IC50 against GRK2 [2] came out at 1.39 µM.

The molecule `COc1cccc([C@@H](C)N2C(=O)c3cc(-c4cn[nH]c4)ccc3[C@H]2CC(=O)O)c1` (single isomer, unassigned) [Compound 98] gave an IC50 against GRK2 [2] of 0.106 µM.

Regarding `O=C1c2cc(-c3cn[nH]c3)ccc2CN1Cc1cccs1` [Compound 28, 6-(1H-Pyrazol-4-yl)-2-(thiophen-2-ylmethyl)isoindolin-1-one], 0.091 µM corresponded to half-maximal inhibition against GRK2 [2] (IC50).
